Measurements published in US20120059020A1, “PROPHYLACTIC OR THERAPEUTIC AGENT FOR PULMONARY FIBROSIS” (SHIZUOKA COFFEIN CO., LTD, priority 2009, published 2012).

Key:
Solubility test in water = format: physicochemical
Method: Solubility test on a 2Na salt of a typical compound (1) (disodium salt of [5-[[6-[4-phenyl-6-(phenylmethoxy)-2-pyrimidinyl]-2-naphthalenyl]oxy]pentyl]propanedioic acid) used in the present invention in water is shown below.
Water of 20±2° C. was added to the 2Na salt of the compound (1), and the mixture was vigorously shaken for 30 seconds and left standing for 5 minutes. This operation was repeated until the 2Na salt of the compound (1) was completely dissolved. The final amount of water required for the dissolution was determined. The solubility of the 2Na salt of the compound (1) in water of 45±5° C. was determined by similar operation.

[1] = tested on: mouse models with bleomycin-induced pulmonary fibrosis; assay: In vivo effect on pulmonary fibrosis induced by bleomycin; design: species or system C57BL/6 mice
Excerpt: The present inventors conducted a test using mouse models with pulmonary fibrosis induced by transtracheally administering bleomycin, for the purpose of studying the antifibrotic action of the propanedioic acid derivative of the present invention in vivo. This experimental model of pulmonary fibrosis is clinically similar to idiopathic pulmonary fibrosis in pathological observations such as increased inflammatory cells and the increased amount of hydroxyproline in an extracellular matrix-constituting collagen ingredient used as an index for fibrosis, and is widely used.
C57BL/6 mice (female, 12 week old, body weight: 20 to 23 g) were anesthetized by the intraperitoneal administration of pentobarbital. The trachea was incised, and bleomycin (NIPPON KAYAKU CO., LTD.) (1.5 mg/kg) dissolved in saline was transtracheally administered thereto. […]
20 days after bleomycin administration, a bronchoalveolar lavage fluid (BALF) was collected from each mouse, and a PAI-1 concentration (ng/mL) in the fluid was measured using an ELISA kit (Mouse PAI-1 ELISA kit, Innovative research Inc.). Subsequently, the amount of hydroxyproline was measured for pulmonary fibrosis evaluation. The amount of hydroxyproline in the lung tissue was measured as the amount in a lung tissue hydrolysate according to the method of Kivirikko et al. (Anal. Biochem. 19, 249-255 (1967)). […]

[2] = Stability test in aqueous solution (HPLC assay); format: physicochemical; settings: for Purity: aqueous solution 1 g/100 mL, 35° C.
Method: Stability test on the 2Na salt of the compound (1) used in the present invention in an aqueous solution is shown below.
Injectable distilled water was added to 1 g of the 2Na salt of the compound (1) to prepare 100 mL of a sample solution. The sample solution was equally divided. One portion was shielded against light, and the other portion was unshielded. Each of them was stored at 35° C. for 11 days during which these sample solutions were assayed over time using high-performance liquid chromatography and examined for stability.
YMC-Pack ODS-A A-302 (YMC Co., Ltd.) was used as a column, and the column temperature was kept at a constant temperature around 40° C. A tetrahydrofuran/0.1% phosphoric acid (54:46) mixed solution was used as a mobile phase. A flow rate was adjusted such that the retention time of the compound (1) was approximately 7 minutes. An ultraviolet absorptiometer (measurement wavelength: 265 nm) was used as a detector.

Amount of solvent required for dissolving 1 g (Solubility test in water; Water (20 ± 2° C.)): 33 mL
Amount of solvent required for dissolving 1 g (Solubility test in water; Water (45 ± 5° C.)): 1.2 mL
Solubility in water (Solubility test in water; water): excellent in solubility in water
Stability of aqueous solution ([2]; 35° C. for 11 days, light-shielded or unshielded): stable
Purity ([2]; light-shielded, 0 days elapsed): 99.8%
Purity ([2]; light-shielded, 1 day elapsed): 99.8%
Purity ([2]; light-shielded, 6 days elapsed): 99.8%
Purity ([2]; light-shielded, 11 days elapsed): 99.8%
Purity ([2]; unshielded, 0 days elapsed): 99.8%
Purity ([2]; unshielded, 1 day elapsed): 99.8%
Purity ([2]; unshielded, 6 days elapsed): 99.7%
Purity ([2]; unshielded, 11 days elapsed): 99.7%
SMILES: O=C([O-])C(CCCCCOc1ccc2cc(-c3nc(OCc4ccccc4)cc(-c4ccccc4)n3)ccc2c1)C(=O)[O-].[Na+].[Na+] [2Na salt of compound (1), disodium salt of [5-[[6-[4-phenyl-6-(phenylmethoxy)-2-pyrimidinyl]-2-naphthalenyl]oxy]pentyl]propanedioic acid]
Fibrotic process of the lung induced by bleomycin ([1]; 1000 ppm in drinking water, free feeding, mice, listed as 2Na salt of the compound (1)): remarkable effectiveness that suppressed the fibrotic process of the lung
Amount of hydroxyproline in lung tissue compared with the control group ([1]; group 2 (late stage): 1000 ppm in drinking water from 8 to 20 days after bleomycin (fibrotic stage), approx. 20 mg/kg/day, measured 20 days after bleomycin): significantly decreased
